Measurements: patent US6001801A, “Cyclic peptide analogs of somatostatin” (Biomeasure, Inc., priority 1998, dated 1999)
Bridge positions count the residues as written; N and C are the ends. Square brackets hold non-standard residues; d marks the D form. Peptide text beside a SMILES is read from it.

Biological target: T1, human SSTR-5 (Homo sapiens, UniProt P35346)
T1 construct: expressed in transfected cells; host or cells: CHO-K1
Assay: Human SSTR-5 binding assay ([125I-Tyr11]somatostatin-14 displacement, membranes of transfected CHO-K1 cells)
Details: ratio greater than one = more selective for SSTR-5 than for SSTR-2
Protocol: (2) Human SSTR-5 Binding Assay
CHO-K1 cells were transfected with the human SSTR-5 cDNA, described in Yamada, et al., Biochem Biophys. Res. Commun., 195-844 (1993) using standard techniques known in the molecular biological art. See, e.g., Patel, et al., Biochem. Biophys. Res. Comm. 198:605 (1994). Crude membranes were prepared by homogenization of the human SSTR-5 transfected CHO-K1 cells in 20 ml of ice-cold 50 mM Tris-HCl with a POLYTRON™ homogenizer (setting 6, 15 sec). Buffer was added to obtain a final volume of 40 ml, and the homogenate was centrifuged in a SORVAL™ SS-34 rotor at 39,000 g for 10 min at 0-4° C. The resulting supernatant was decanted and discarded. The pellet was rehomogenized in ice-cold buffer, diluted, and centrifuged as before. The final pellet was resuspended in the 10 mM Tris HCl and held on ice for the receptor binding assay.
The final assay volume was 0.3 ml. The incubations were terminated by rapid filtration through GF/C filters (pre-soaked in 0.3% polyethylenimine for 30 min) using a Brandel filtration manifold. Each tube and filter was then washed three times with 5 ml aliquots of ice-cold buffer.

T1 sequence (P35346 whole entry): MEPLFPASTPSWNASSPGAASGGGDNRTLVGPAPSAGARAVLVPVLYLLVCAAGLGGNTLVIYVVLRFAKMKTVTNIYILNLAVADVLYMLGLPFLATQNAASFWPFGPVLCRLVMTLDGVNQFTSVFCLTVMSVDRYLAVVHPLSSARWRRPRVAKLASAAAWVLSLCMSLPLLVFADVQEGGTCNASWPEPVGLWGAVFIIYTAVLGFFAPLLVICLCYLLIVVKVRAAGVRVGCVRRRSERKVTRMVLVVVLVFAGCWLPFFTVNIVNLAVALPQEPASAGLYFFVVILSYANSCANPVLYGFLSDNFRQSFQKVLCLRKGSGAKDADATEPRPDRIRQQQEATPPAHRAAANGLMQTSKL

Row | Compound | SSTR-2/SSTR-5 (ratio of the Ki's for human SSTR-2 and human SSTR-5)
1 | C[C@@H](O)[C@@H]1NC(=O)[C@H](CCCCN)NC(=O)[C@@H](Cc2c[nH]c3ccccc23)NC(=O)[C@H](Cc2ccccc2)NC(=O)[C@H](Cc2ccccc2)NC(=O)[C@H](N)CSSC[C@@H](C(N)=O)NC(=O)[C@H](Cc2ccccc2)NC1=O [Analog II, H2 -c[D-Cys-Phe-Phe-D-Trp-Lys-Thr-Phe-Cys] -NH2] (H-[dC]FF[dW]KTFC-NH2; disulfide 1-8) | 4.94
2 | NCCCC[C@@H]1NC(=O)[C@@H](Cc2c[nH]c3ccccc23)NC(=O)[C@H](Cc2ccccc2)NC(=O)[C@H](Cc2ccccc2)NC(=O)[C@@H](N)CSSC[C@@H](C(N)=O)NC(=O)[C@H](Cc2ccccc2)NC(=O)[C@H](CO)NC1=O [Analog IV, H2 -c[Cys-Phe-Phe-D-Trp-Lys-Ser-Phe-Cys] -NH2] (H-CFF[dW]KSFC-NH2; disulfide 1-8) | 20.8
3 | H2 -c[Cys-Asn-Phe-Phe-D-Trp-Lys-Thr-Phe-Cys]-NH2 [Analog V] | 53.1
4 | H2 -c[Cys-Phe-Phe-D-Trp-Lys-Thr-Phe-Cys] -NH2 [Analog I] | 40.2
5 | NCCCC[C@@H]1NC(=O)[C@@H](Cc2c[nH]c3ccccc23)NC(=O)[C@H](Cc2c[nH]c3ccccc23)NC(=O)[C@H](Cc2ccccc2)NC(=O)[C@@H](N)CSSC[C@@H](C(N)=O)NC(=O)[C@H](Cc2ccccc2)NC(=O)[C@H](CO)NC1=O [Analog III, H2 -c[Cys-Phe-Trp-D-Trp-Lys-Ser-Phe-Cys] -NH2] (H-CFW[dW]KSFC-NH2; disulfide 1-8) | 12.1
